Usually melting point stands for the temperature of the solid-liquid transition. On to `CC(c1oc2ccccc2c(=O)c1-c1cccc(F)c1)n1nc(-c2ccc(OC(F)(F)F)cc2)c2c(N)ncnc21` (configuration not stated), for which the melting point fell in the range of 224 to 226 °C.

`C=CCNC(=O)c1cnc2c(OC)cccc2c1Cl`: the melting point was in the range of 114 to 116 °C.

In turn, `Cc1noc(-c2ncn3c2[C@@H]2CCCN2C(=O)c2c(Br)cccc2-3)n1` displayed a melting point of 237 to 238 °C.

`Cn1c(CCNC(=O)C(F)(F)F)cc2cccc(F)c21` came in with a melting point of 108 to 110 °C.

In turn, `COC(=O)CCC(CCCCNS(=O)(=O)c1ccc(Cl)cc1)CCCc1cccnc1` (configuration not stated) had a melting point of 81 to 82 °C.

With `COc1cc2ncc(N[C@@H]3C[C@@H]4C[C@H]3C[C@H]4O)nc2cc1OC`, the melting point is 190 to 192 °C.

As for `COC(OC)c1cnc(C)nc1N`, the melting point lay within 102 to 104 °C.

In the case of `COc1ccc(N2CCN(Cc3cn4cc(Cl)ccc4n3)CC2)cc1`, the melting point was in the range of 111 to 112 °C.

As for `CCOC(=O)C(C)ON1CCNC1=Nc1c(Cl)cccc1Cl` (configuration not stated), the melting point was 79 to 80 °C.

The molecule `Oc1cccc(-c2noc3ncccc23)c1` registered a melting point of 175 to 178 °C.

As for `COc1ccc(Cl)cc1C(=O)NS(=O)(=O)c1ccc(C(=O)Cl)cc1`, the melting point lay within 138 to 140 °C.

Molecule `FC(F)(F)c1cccc(-c2cnn(-c3cccnc3)c2)n1` displayed a melting point of 130 to 131 °C.

With `C=C(C)COc1ccc(C(=O)C=Cc2cccs2)c(O)c1`, the melting point was in the range of 119 to 120 °C.

Molecule `FC(F)(F)c1cc(C(F)(F)F)n(-c2ccc(Nc3noc4ccccc34)cc2)n1` registered a melting point of 209 to 210 °C.

Turning to `CC(C)(C)c1cc(O)c(N)c([N+](=O)[O-])c1`, the melting point fell in the range of 180 to 181 °C.

`CCNC(=O)[C@H]1CN(c2ccc3c(c2)sc(=O)n3C)C(=O)O1` came in with a melting point of 224 to 226 °C.

Consider `CS(C)=Nc1cnc(Cl)cn1`, for which the melting point lay within 119 to 120 °C.

Take `N#Cc1cccc(C2=Nc3cc(O)c(-c4cc(F)ccc4F)cc3NC(=O)C2)c1`: the melting point is over 250 °C.

In the case of `COc1cc(NC(=O)Nc2ccccc2)c(O)c(C(C)(C)C)c1`, the melting point is 147 to 149 °C.

The molecule `OC1(c2ccc(-c3cncnc3)cc2)CN2CCC1CC2` (configuration not stated) yielded a melting point of 184 to 185 °C.

For `Nc1ccc2c(c1)C=C(C(=O)O)C(C(F)(F)F)O2` (configuration not stated), the melting point was in the range of 126 to 133 °C.

Turning to `O=C(CC1(O)CCC1)N[C@H]1CC[C@H](CCN2CCN(c3nccc4c3CCO4)CC2)CC1`, the melting point was found to be 155 °C.

For `Cc1ccc([C@@H]2CO[C@@H](c3ccc(C)cc3)CO2)cc1`, the melting point was determined as 200 °C.

`COC(=O)Nc1nc2cc(C(O)c3ccc(F)cc3)ccc2[nH]1` (configuration not stated): the melting point is 300 °C.

Take `CCC(C)C(=O)c1cn(C)cc(-c2cccc(C(F)(F)F)c2)c1=O` (configuration not stated): the melting point is 109 to 111 °C.

In turn, `CC(=O)c1ccc(Sc2cccc(Br)c2)cc1` returned a melting point of 54 to 57 °C.

For `N#Cc1cc(F)ccc1N1CCNCC1`, the melting point fell in the range of 83 to 83.5 °C.

`CC1(CCn2nc(-c3ccncc3)oc2=O)Cn2cc([N+](=O)[O-])nc2O1` (configuration not stated) registered a melting point of 147 to 149 °C.

In turn, `CCOC(=O)N(C)n1cccc1C(=O)c1ccccc1F` displayed a melting point of 64 to 66 °C.

Regarding `CCC(CC)CNC(=O)c1cccc(CN2C(=O)C3(COc4cc5c(cc43)CCO5)c3ccccc32)c1` (configuration not stated), the melting point is 105 to 106 °C.

`CCOC(=O)C1=C(C)NC(C=O)=C(C(=O)OCC)C1c1cccc(O)c1` (configuration not stated) registered a melting point of 142 °C.

As to `OC1C2=C(CCN1CCCCc1c[nH]c3ccccc13)c1ccccc1C2` (configuration not stated), the melting point lay within 205 to 208 °C.

For `CC(C)(C)OC(=O)CNC(=O)c1sc(Nc2ccccc2)c2c1CCc1cnoc1-2`, the melting point lay within 115 to 116 °C.

Turning to `CCCn1cncc1CSc1ccc(NC(=O)C(F)(F)F)cc1`, the melting point lay within 82 to 84 °C.

Take `Oc1ccc(-c2ncc3ncc(-c4ccc(S)cc4)cc3n2)cc1`: the melting point is 222 to 223 °C.

Regarding `CC(C)[C@@H]1C[C@H](O)[C@H](CC2CCCCC2)NC1=O`, the melting point was 97 to 99 °C.

For the molecule `CC(C)=CC(=O)Nc1ccc(F)cc1CCN1CCN(c2nsc3ccccc23)CC1`, the melting point turned out to be 175 °C.

Consider `CNC(=O)Cc1c(F)cccc1F`, for which the melting point lay within 163 to 164 °C.

Molecule `c1ccc(-c2nnc(NCC3CC3)cc2-c2ccncc2)cc1` yielded a melting point of 199 to 200 °C.

For `Cc1cccc(C(=O)c2cccc(N)c2)c1`, the melting point stood at 110 °C.

Turning to `COC[C@H]1CN(c2ccc3nc([C@@H](O)CCC#N)sc3c2)C(=O)O1`, the melting point lay within 74 to 75 °C.

With `COc1ccccc1NC(=O)Oc1ccc2c(c1)N(Cc1ccccc1)CCC2`, the melting point is 125 °C.

Molecule `COC(=O)C12COc3cc(C(F)(F)F)ccc3C1=NN(C(=O)Nc1ccc(Cl)cn1)C2` (configuration not stated) yielded a melting point of 196 to 198 °C.

Take `CCOC(=O)Nc1c(C(=O)c2ccccc2)[nH]c2cc(Cl)ccc12`: the melting point was 159 to 161 °C.

On to `O=C(O)c1cn(C2CC2)c2c(OC(F)F)c(F)c(F)cc2c1=O`, for which the melting point is 202 to 207 °C.

`Cc1c(N2C(=O)C=CC2=O)cccc1N1C(=O)C=CC1=O` showed a melting point of 210 to 212 °C.

`CNc1nc(-c2ccc(Br)cc2)cs1` showed a melting point of 147 °C.

As to `OC1Cc2ccccc2C1O` (configuration not stated), the melting point is 98 to 100 °C.

Regarding `CC(C)(C)c1cc(C(=O)Nc2cccnc2NC(=O)NC23CC4CC(CC(C4)C2)C3)cc(C(C)(C)C)c1O`, the melting point was in the range of 198 to 202 °C.

In the case of `Cc1c(-c2ccccc2)n(-c2ccccc2Cl)c(-c2ccccc2)cc1=S`, the melting point lay within 271 to 275 °C.

In turn, `Nc1ncnc2c1ncn2CCCCOCP(=O)(O)O` came in with a melting point of 67 °C.

For `COCCN(CCOC)Cc1nc(-c2ncn3c2[C@@H]2CCN2C(=O)c2c(Cl)cccc2-3)no1`, the melting point lay within 188 to 190 °C.

The molecule `Cc1onc(-c2ccc(Br)cc2)c1-c1ccc(S(N)(=O)=O)cc1` returned a melting point of 152 to 153 °C.

`O=C1C2=C(CCCC2)C(=O)N1CCCCCCN1C(=O)C2=C(CCCC2)C1=O` showed a melting point of 123 to 124 °C.

`Cc1ccc2c(c1)C1=NN(c3ccc(OCCCN4CCCCC4)cc3)C(=O)CC1CC2` (configuration not stated) showed a melting point of 171 to 172 °C.

In turn, `CC(C)c1noc(-c2ncn3c2nc(N2CCOCC2)c2cc(F)ccc23)n1` registered a melting point of 262 to 264 °C.

Molecule `CC(C)(C)c1cc(C=CC#N)cc(C(C)(C)C)c1O` had a melting point of 109 to 113 °C.

In the case of `Nc1ncc2[nH]c3ccccc3c2n1`, the melting point is 258 to 260 °C.

The molecule `CC(C)(C)Sc1c(CC(C)(C)C(=O)O)n(Cc2ccc(Cl)cc2)c2ccc(OCc3ccncc3)cc12` registered a melting point of 238 to 240 °C.

`CCC(=O)c1cc2c(Oc3ccc(Cl)cc3)cncc2s1` returned a melting point of 101 to 102 °C.

`CC(C)(C)ON=C1CCC(NC(=O)N2CCn3c(Cl)c(-c4cccc(F)c4)c(C(N)=O)c3C2)CC1` (configuration not stated) had a melting point of 195 to 198 °C.

`O=CNc1cccc2c1SC1=NCCN12` yielded a melting point of 217 °C.

`Cc1cccc(COc2cccc(OCc3cc(=O)c4ccccc4n3C)c2)c1OCC(=O)O` returned a melting point of 192 to 194 °C.

Consider `CCOC(=O)c1c(C)nn(-c2c(Cl)cc(Cl)cc2Cl)c1N`, for which the melting point was found to be 150 °C.

Molecule `CC(=O)OC1CCC2(C)C(=CCC3C2CCC2(C)C3CC(OC(C)=O)C2OC(C)=O)C1` (configuration not stated) came in with a melting point of 127 to 129 °C.

As to `CC(C)(C)OC(=O)Nc1cc(COC2CCCCO2)c(-c2ccc(F)cc2)cc1N` (configuration not stated), the melting point was in the range of 139 to 142 °C.

On to `CNC(=O)N1CCC(c2nn(-c3ccc(C(F)(F)F)cc3)c3ccccc23)CC1`, for which the melting point was 150 to 152 °C.

`COc1ccc(C(=O)Cc2cccs2)cc1` showed a melting point of 44 to 45.5 °C.

In the case of `COc1ccc(-c2[nH]nc3c2C(=O)c2c(NC(=O)CN4CCNCC4)cccc2-3)cc1`, the melting point was 277 °C.

With `O=C(C=Cc1ccco1)Nc1nnn[nH]1`, the melting point was in the range of 287 to 289 °C.

Molecule `CCCN(c1cc(Cl)ncn1)n1cccc1` yielded a melting point of 52 to 54 °C.

As for `CS(=O)(=O)c1ccc(-n2cc(-c3cccc(F)c3)nc2-c2ccc(Cl)cc2)cc1`, the melting point was 194 to 196 °C.

Turning to `O=C(O)Cc1cn(-c2ccccc2)nc1OCc1ccccc1`, the melting point lay in the range of 105 to 106 °C.

Molecule `Cc1cc(C)c(Nc2nc(C)ccc2S(=O)(=O)c2ccc(OCc3ccccn3)cc2)c(C)c1` registered a melting point of 182 to 184 °C.

`COc1cc(C(=O)C#CC(=O)O)cc(OC)c1OC` returned a melting point of 130 to 132 °C.

Molecule `O=C(O)Cc1c(Cl)c(F)nc(F)c1Cl` gave a melting point of 157 to 159 °C.

As for `O=C1CC(O)CC(/C=C/c2cccc(Cl)c2Cl)O1` (configuration not stated), the melting point lay in the range of 122 to 123 °C.

Regarding `CCN(CC)CCNC(=O)c1cnc(-c2ccccc2)nc1S`, the melting point was in the range of 178 to 180 °C.

The molecule `C#CC(C)(C)OC(=O)N1CCNCC1` yielded a melting point of 35 to 38 °C.

With `CC(=NO)c1ccccc1Nc1c(Cl)ccc(C)c1Cl`, the melting point was 116 to 118 °C.

For `Sc1n[nH]c(-n2cccn2)n1`, the melting point fell in the range of 245 to 247 °C.

As to `Cc1cccc(C=Cc2c(C(C)C)nc(C(C)C)c(CO)c2-c2ccc(F)cc2)c1`, the melting point was in the range of 97 to 99 °C.

`CCOC(CI)=Nc1ccc(Cl)cc1C(=O)c1ccccc1` displayed a melting point of 67 to 68 °C.

`Cc1c(C)c2c(c(C)c1NC(=O)OC(C)(C)C)C(O)(c1ccc(C(C)C)cc1)C(C)(C)O2` (configuration not stated) yielded a melting point of 155 to 157 °C.

`CCOC(=O)N(C)CC1CN(c2c(F)cc3c(=O)c(C(=O)O)cn(C4CC4)c3c2F)CCO1` (configuration not stated) showed a melting point of 128 to 131 °C.

As to `Nc1nc(NCCO)c(Cl)nc1[N+](=O)[O-]`, the melting point was in the range of 196 to 197 °C.

The molecule `Cc1ccc(C(=O)c2ccc(Cc3c(Cl)cc(N)cc3Cl)cc2)cn1` yielded a melting point of 153 to 155 °C.

Consider `CC(C)Oc1ccc(-c2nc3c4ccccc4ccc3n2C)cc1`, for which the melting point lay in the range of 144 to 145 °C.

The molecule `FC(F)Oc1cccc(C=C2c3ccccc3CCc3ccccc32)c1` registered a melting point of 91.3 °C.

In turn, `COc1c(C)c(N2CCN(c3ccc(OC(F)(F)F)cc3)CC2)c(C)c2c1OC(C)(C)C2` returned a melting point of 162 to 164 °C.

`OCc1ccc2cccc(Br)c2c1`: the melting point was 110 to 111 °C.

`COC(=O)c1ccc(C(=O)NS(=O)(=O)c2ccc(CCNC(=O)COc3ccccc3)cc2)cn1`: the melting point was 201 to 203 °C.

The values above are taken from a melting point compilation (Tetko et al.; mined from patent text by program, amines drawn as free bases though some values may be those of a salt).
